Test results taken from US7537765B2, “Inhibition of HIV-1 replication by disruption of the processing of the viral capsid-spacer peptide 1 protein” (priority 2003, dated 2009).
Like-named read-outs stand apart in the source and are kept apart here.

Experiments:
[1] = test system: NNRTI-resistant HIV-1 isolates; assay: NNRTI-resistant HIV-1 isolates in MT-2 cells, cell viability (XTT) endpoint; assay type: cell-based; settings: for IC50: X4, MT-2 cells
Protocol: (§1) The activity of DSB was tested against a panel of HIV-1 isolates resistant to approved drugs. These viruses were obtained from the NIH AIDS Research and Reference Reagent Program. Assays were performed using virus propagated in PBMCs with a p24 endpoint (above), or using cell line targets (MT-2 cells) and a cell killing endpoint. The MT-2 assay format was as follows. Serial dilutions of DSB, or each approved drug, were prepared in 96 well plates. To each sample well was added media containing MT-2 cells at 3×10^5 cells/mL and virus inoculum at a concentration necessary to result in 80% killing of the cell targets at 5 days post-infection (PI). On day 5 post-infection, virus-induced cell killing was determined by the XTT method and the inhibitory activity of the compound was determined.

[2] = test system: primary Clade B HIV-1 isolates; assay: Virus inhibition assay, primary HIV-1 isolates in PBMC, p24 endpoint; assay type: cell-based; settings: Human immunodeficiency virus 1, PBMC
Protocol: (§2) A robust virus inhibition assay was used to evaluate the anti-viral activity of DSB against primary HIV-1 isolates propagated in PMBC. Briefly, serial dilutions of DSB were made in medium into 96-well tissue culture plates. 25-250 TCID50 of virus and 5×10^5 PHA-stimulated PBMCs were added to each well. On days 1, 3 and 5 post-infection, media was removed from each well and replaced with fresh media containing DSB at the appropriate concentration. On day 7 post-infection, culture supernatant was removed from each well for p24 detection of virus replication and 50% inhibitory concentrations (IC50) were calculated by standard methods.

[3] = test system: drug resistant HIV-1 isolates; assay: Drug resistant HIV-1 isolates in fresh PBMC, p24 endpoint; assay type: cell-based; settings: for IC50: Human immunodeficiency virus 1, PBMC
Protocol: as §2, with “concentration.” for “concentration. On day 7 post-infection, culture supernatant was removed from each well for p24 detection of virus replication and 50% inhibitory concentrations (IC50) were calculated by standard methods.”
as §1

[4] = test system: HIV-1 infected MAGI cells; assay type: cell-based
Source text: To distinguish the inhibitory activity of DSB against early and late replication targets, a multinuclear activation of a galactosidase indicator (MAGI) assay was used. In this assay, the targets are HeLa cells stably expressing CD4, CXCR4, CCR5 and a reporter construct consisting of the—galactosidase gene (modified to localize to the nucleus) driven by a truncated HIV-1 LTR. Infection of these cells results in expression of Tat that drives activation of the β-galactosidase reporter gene. Expression of β-galactosidase in infected cells is detected using the chromogenic substrate X-gal.

[5] = test system: HIV-1 replication in H9 lymphocyte cells; settings: cited from earlier work
[6] = Human immunodeficiency virus 1, MT2, isolate 3, NNRTI-resistant, Y181C
[7] = Human immunodeficiency virus 1, MT2, isolate 4, NNRTI-resistant, K103N Y181C
[8] = 168 h, isolate 92HT599, co-receptor X4, PBMC, p24 day 7, read-out: IC50
[9] = 168 h, isolate 92US723, co-receptor R5/X4, PBMC, p24 day 7, read-out: IC50
[10] = 168 h, isolate 3401N*, co-receptor R5/X4, PBMC, p24 day 7, read-out: IC50
[11] = 168 h, isolate 19101N*, co-receptor R5, PBMC, p24 day 7, read-out: IC50
[12] = 168 h, isolate 22101N*, co-receptor R5/X4, PBMC, p24 day 7, read-out: IC50
[13] = 168 h, isolate BZ167, co-receptor X4, PBMC, p24 day 7, read-out: IC50
[14] = 168 h, isolate US1, co-receptor R5, PBMC, p24 day 7, read-out: IC50
[15] = mean over the panel of primary isolates, read-out: IC50, Mean
[16] = isolate 1, NRTI-resistant, K70R T215Y/F, R5/X4
[17] = isolate 2, NRTI-resistant, K70R T215Y/F, R5/X4
[18] = isolate 5, Protease-resistant, V82A, X4
[19] = isolate 6, Protease-resistant, I84V, X4
[20] = isolate 7, Protease-resistant, L10R/M46I/L63P/V82T/I84V, X4
[21] = H9 lymphocyte cells, read-out: EC50, inhibitory activity against HIV-1 replication

In the case of `Cc1cn([C@H]2C[C@H](N=[N+]=[N-])[C@@H](CO)O2)c(=O)[nH]c1=O` [AZT, zidovudine], the IC50 [1, 6] is reported as 5.1 nM, the IC50 [1, 7] is reported as 2 nM and the IC50 [2, 8] is reported as 5.8 nM. For the same molecule, the IC50 [2, 9] was 1.2 nM, the IC50 [2, 10] was 17.5 nM and the IC50 [2, 11] was 2.4 nM. For the same molecule, the IC50 [2, 12] was 0.9 nM, the IC50 [2, 13] was 2.2 nM and the IC50 [2, 14] was 0.9 nM. For the same molecule, the IC50 [2, 15] was 4.4 nM, the IC50 [3, 16] was 86.4 nM and the IC50 [3, 17] was 63.4 nM. The IC50 [3, 18] was 13.1 nM, the IC50 [3, 19] was 14.4 nM and the IC50 [3, 20] was 3.5 nM. For the same molecule, the “Fold Resistance” value ([3]; isolate 1, NRTI-resistant) was 54 X, the “Fold Resistance” value ([3]; isolate 2, NRTI-resistant) was 40 X and the “% Decrease (β-galactosidase expression)” value ([4]; HIV-1 infected MAGI cells) was 82%.

For `C=C(C)[C@@H]1CC[C@]2(C(=O)O)CC[C@]3(C)[C@H](CC[C@@H]4[C@@]5(C)CC[C@H](O)C(C)(C)[C@@H]5CC[C@]43C)[C@@H]12` [Betulinic acid], the EC50 [5, 21] is given as 1400 nM.

In the case of `CC(C)(C)NC(=O)[C@@H]1CN(Cc2cccnc2)CCN1C[C@@H](O)C[C@@H](Cc1ccccc1)C(=O)N[C@H]1c2ccccc2C[C@H]1O` [Indinavir, indinavir], the IC50 [1, 6] is reported as 2.5 nM, the IC50 [1, 7] is reported as 4.5 nM and the IC50 [3, 16] is reported as 9.8 nM. For the same molecule, the IC50 [3, 17] was 6.1 nM, the IC50 [3, 18] was 39.7 nM and the IC50 [3, 19] was 32.7 nM. For the same molecule, the IC50 [3, 20] was 72.5 nM and the “% Decrease (β-galactosidase expression)” value [4] was 10%.

For `Cc1ccnc2c1NC(=O)c1cccnc1N2C1CC1` [Nevirapine, nevirapine], the IC50 [1, 6] was greater than 3800 nM, the IC50 [1, 7] was 2630 nM and the “Fold Resistance” value ([1]; isolate 3, NNRTI-resistant) was “(>177X)”. The “Fold Resistance” value ([1]; isolate 4, NNRTI-resistant) was “(122X)”, the IC50 [2, 8] was 25.3 nM and the IC50 [2, 9] was 26.8 nM. It also gave an IC50 [2, 10] of 32.1 nM, an IC50 [2, 11] of 59.4 nM and an IC50 [2, 12] of 4.9 nM. The IC50 [2, 13] was 31.2 nM, the IC50 [2, 14] was 22.1 nM and the IC50 [2, 15] was 28.8 nM. The “% Decrease (β-galactosidase expression)” value ([4]; HIV-1 infected MAGI cells) was 85%.

For `CC(C)[C@@H]1CC[C@]2(C(=O)O)CC[C@]3(C)C(CCC4[C@@]5(C)CC[C@H](O)C(C)(C)C5CC[C@]43C)C12` (stereo partly drawn) [dihydrobetulinic acid], the EC50 ([5]; unit inferred, read-out: EC50, anti-HIV activity) is listed as 900 nM.

For `CC(=O)[C@@H]1CC[C@]2(C(=O)O)CC[C@]3(C)[C@H](CC[C@@H]4[C@@]5(C)CC[C@H](O)C(C)(C)[C@@H]5CC[C@]43C)[C@@H]12` [platanic acid], the EC50 [5, 21] is given as 6500 nM.
